Experimental data: ChEMBL document CHEMBL1157123, “First identification of xanthone sulfonamides as potent acyl-CoA:cholesterol acyltransferase (ACAT) inhibitors” (Bioorg Med Chem Lett, 2010)
Active and inactive are the calls of the source. The rule behind the calls is not given here.

Target: T1, Sterol O-acyltransferase 1 (Homo sapiens) (UniProt P35610)
T1 sequence (whole entry): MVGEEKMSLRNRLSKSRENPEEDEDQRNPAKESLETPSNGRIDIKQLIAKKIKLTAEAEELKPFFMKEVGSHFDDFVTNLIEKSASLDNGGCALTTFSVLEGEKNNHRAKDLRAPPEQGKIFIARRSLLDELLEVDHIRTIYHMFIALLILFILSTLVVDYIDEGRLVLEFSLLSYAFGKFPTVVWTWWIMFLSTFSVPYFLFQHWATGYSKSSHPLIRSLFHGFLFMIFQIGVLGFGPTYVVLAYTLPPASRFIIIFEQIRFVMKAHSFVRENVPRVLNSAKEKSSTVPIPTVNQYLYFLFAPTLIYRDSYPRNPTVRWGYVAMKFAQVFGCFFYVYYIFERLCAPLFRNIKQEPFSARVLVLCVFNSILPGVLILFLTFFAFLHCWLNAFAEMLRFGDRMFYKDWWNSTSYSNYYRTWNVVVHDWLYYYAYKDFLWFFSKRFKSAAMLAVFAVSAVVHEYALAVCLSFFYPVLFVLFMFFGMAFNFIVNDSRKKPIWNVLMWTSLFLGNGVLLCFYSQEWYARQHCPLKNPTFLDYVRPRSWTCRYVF
Test: Inhibition of ACAT at 10 ug/ml

Row | inhibition | Compound
1 | 10.5% | COc1cc2oc3c(S(=O)(=O)N4CCCCC4)c(OC)cc(OC)c3c(=O)c2cc1OC
2 | inactive | CNS(=O)(=O)c1c(OC)cc(OC)c2c(=O)c3cc(OC)c(OC)cc3oc12
3 | 8.84% | COc1cc2oc3c(S(=O)(=O)N4C[C@@H](C)O[C@@H](C)C4)c(OC)cc(OC)c3c(=O)c2cc1OC
4 | 51.3% | COc1cc2oc3c(S(=O)(=O)N4CC=C(c5ccccc5)CC4)c(OC)cc(OC)c3c(=O)c2cc1OC
5 | 30.1% | COc1ccc(CCCN(C)S(=O)(=O)c2c(OC)cc(OC)c3c(=O)c4cc(OC)c(OC)cc4oc23)cc1OC
6 | 11.9% | COc1cc2oc3c(S(=O)(=O)NCCc4ccc(C)c(C)c4)c(OC)cc(OC)c3c(=O)c2cc1OC
7 | inactive | COc1cc2oc3c(S(=O)(=O)NC4CC4)c(OC)cc(OC)c3c(=O)c2cc1OC
8 | inactive | CCCNS(=O)(=O)c1c(OC)cc(OC)c2c(=O)c3cc(OC)c(OC)cc3oc12
9 | 43.6% | COc1cc2oc3c(S(=O)(=O)N4CCN(c5ccccn5)CC4)c(OC)cc(OC)c3c(=O)c2cc1OC
10 | 16.8% | COc1cc2oc3c(S(=O)(=O)NOCc4ccccc4)c(OC)cc(OC)c3c(=O)c2cc1OC
11 | 25% | COc1cc2oc3c(S(=O)(=O)NCc4ccc5ccccc5c4)c(OC)cc(OC)c3c(=O)c2cc1OC
12 | 14.5% | COc1cc2oc3c(S(=O)(=O)N4CCN(C)CC4)c(OC)cc(OC)c3c(=O)c2cc1OC
13 | 10.8% | COc1cc2oc3c(S(=O)(=O)NCC(C)c4ccccc4)c(OC)cc(OC)c3c(=O)c2cc1OC (centres undefined)
14 | 10.2% | COc1cc2oc3c(S(=O)(=O)NCc4ccc(F)cc4)c(OC)cc(OC)c3c(=O)c2cc1OC
15 | 7.99% | CCOC(=O)C1CCCN(S(=O)(=O)c2c(OC)cc(OC)c3c(=O)c4cc(OC)c(OC)cc4oc23)C1 (centres undefined)
16 | 21% | COc1cc2oc3c(S(=O)(=O)N4CCC(N(C)C)C4)c(OC)cc(OC)c3c(=O)c2cc1OC (centres undefined)
17 | 36.9% | COc1ccc(N2CCN(S(=O)(=O)c3c(OC)cc(OC)c4c(=O)c5cc(OC)c(OC)cc5oc34)CC2)cc1
18 | 15.8% | COc1cc2oc3c(S(=O)(=O)NCc4cccc(Cl)c4)c(OC)cc(OC)c3c(=O)c2cc1OC
19 | 12.6% | CCN(CC)C(=O)C1CCCN(S(=O)(=O)c2c(OC)cc(OC)c3c(=O)c4cc(OC)c(OC)cc4oc23)C1 (centres undefined)
20 | 16.8% | CCOC(=O)CN(C)S(=O)(=O)c1c(OC)cc(OC)c2c(=O)c3cc(OC)c(OC)cc3oc12
21 | inactive | COc1cc2oc3c(S(=O)(=O)NC(c4ccccc4)c4ccccc4)c(OC)cc(OC)c3c(=O)c2cc1OC
22 | 64.8% | COc1cc2oc3c(S(=O)(=O)N4CCN(c5cccc(C)c5)CC4)c(OC)cc(OC)c3c(=O)c2cc1OC
23 | 5.13% | COC(=O)CNS(=O)(=O)c1c(OC)cc(OC)c2c(=O)c3cc(OC)c(OC)cc3oc12

Row | Compound | inhibition
24 | CCCCCCCCCC[Si](C)(C)CCC(=O)NC(Cc1ccc(C)cc1)c1ccccc1 (centres undefined) | 55%
